# Measurements published in the supplement of paper PMC10307832.
# Experiments:
# Test in all cases: relative viability (nuclei count vs DMSO), 5 days (fraction); higher = more cells survive
# [1] = compound: CNC(=O)c1cc(Oc2ccc(NC(=O)Nc3ccc(Cl)c(C(F)(F)F)c3)cc2)ccn1 [Sorafenib] + CS(=O)(=O)CCNCc1ccc(-c2ccc3ncnc(Nc4ccc(OCc5cccc(F)c5)c(Cl)c4)c3c2)o1 [Lapatinib] (partner 2 µM)
# How it was run: (§1)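 Dosing by pin tool came one day after lung cancer cell lines were seeded in 1536-well plates, using either one drug or a fixed anchor-drug dose plus five library-drug doses (not always all listed) in √10 steps. After 5 days, nuclei were counted on 4× images. Relative viability is treated-well nuclei count divided by vehicle-well nuclei count, and values are medians of duplicate plates.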
# [2] = compound: CNC(=O)c1cc(Oc2ccc(NC(=O)Nc3ccc(Cl)c(C(F)(F)F)c3)cc2)ccn1 [Sorafenib] + CCNC(=O)c1noc(-c2cc(C(C)C)c(O)cc2O)c1-c1ccc(CN2CCOCC2)cc1 [Luminespib] (partner 0.01 µM)
# How it was run: as §1
# [3] = compound: CNC(=O)c1cc(Oc2ccc(NC(=O)Nc3ccc(Cl)c(C(F)(F)F)c3)cc2)ccn1 [Sorafenib] + COc1cccc2cc(-c3nc([C@H]4CC[C@H](C(=O)O)CC4)n4ncnc(N)c34)[nH]c12 [OSI-027] (partner 0.5 µM)
# How it was run: as §1
# [4] = compound: CNC(=O)c1cc(Oc2ccc(NC(=O)Nc3ccc(Cl)c(C(F)(F)F)c3)cc2)ccn1 [Sorafenib] + CC(C)C[C@H](NC(=O)[C@H](Cc1ccccc1)NC(=O)c1cnccn1)B(O)O [Bortezomib] (partner 0.002 µM)
# How it was run: as §1
# [5] = compound: CNC(=O)c1cc(Oc2ccc(NC(=O)Nc3ccc(Cl)c(C(F)(F)F)c3)cc2)ccn1 [Sorafenib] + Cc1nc(NC(=O)N2CCC[C@H]2C(N)=O)sc1-c1ccnc(C(C)(C)C(F)(F)F)c1 [Alpelisib] (partner 2 µM)
# How it was run: as §1
Cell Line,relative viability ([1]; first compound 0.08 µM),relative viability ([1]; first compound 0.253 µM),relative viability ([1]; first compound 2.53 µM),relative viability ([1]; first compound 8 µM),relative viability ([2]; first compound 0.08 µM),relative viability ([2]; first compound 0.253 µM),relative viability ([2]; first compound 2.53 µM),relative viability ([2]; first compound 8 µM),relative viability ([3]; first compound 0.08 µM),relative viability ([3]; first compound 0.253 µM),relative viability ([3]; first compound 2.53 µM),relative viability ([3]; first compound 8 µM),relative viability ([4]; first compound 0.253 µM),relative viability ([4]; first compound 2.53 µM),relative viability ([4]; first compound 8 µM),relative viability ([5]; first compound 0.08 µM),relative viability ([5]; first compound 0.253 µM),relative viability ([5]; first compound 2.53 µM),relative viability ([5]; first compound 8 µM),relative viability ([4]; first compound 0.08 µM)
NCI-H1563,1.01,0.92,0.884,0.671,0.533,0.471,0.527,0.529,0.792,0.766,0.687,0.7,0.905,0.976,0.508,0.903,1,0.894,0.728,
NCI-H1734,1.06,0.991,0.951,0.663,0.235,0.131,0.186,0.161,0.585,0.534,0.584,0.318,1.14,0.885,0.346,0.685,0.654,0.633,0.568,1.01
NCI-H1666,0.594,0.674,0.739,0.598,,1.03,0.951,0.872,0.912,0.781,0.798,0.692,0.66,0.851,,0.849,0.93,0.782,0.537,
EPLC-272H,1.08,0.838,1.04,0.735,0.26,0.303,0.263,0.335,0.314,0.296,0.273,0.269,0.872,0.959,0.696,0.928,0.986,1.15,0.898,0.945
CAL-12T,0.768,0.685,0.724,0.682,0.14,0.363,0.347,0.147,0.78,0.492,0.565,0.299,0.689,1.24,0.465,1.18,1.09,0.971,0.705,1.04
LCLC-97TM1,0.678,0.707,0.701,0.603,0.97,0.743,0.716,0.56,0.552,0.515,0.336,0.272,0.623,0.992,0.73,0.237,0.247,0.184,0.198,0.725
NCI-H650,0.986,0.855,0.946,0.611,0.809,0.639,0.605,0.677,0.541,0.363,0.451,0.504,0.581,0.746,0.677,1.31,0.96,0.952,0.963,0.759
HCC-44,0.926,0.919,0.949,0.812,1.09,1.01,1.02,0.992,0.552,0.431,0.741,0.395,0.805,0.865,0.699,0.833,0.785,0.793,0.649,0.814
NCI-H1975,1.04,0.835,1.02,0.448,0.426,0.201,0.24,0.153,0.812,0.55,0.695,0.375,0.375,0.445,0.201,0.643,0.789,0.77,0.323,0.404
RERF-LC-KJ,0.917,0.782,0.838,0.778,1.2,1.26,1.24,0.404,0.601,0.502,0.649,0.397,0.992,1.17,0.992,1.03,0.989,0.951,0.906,1.12
NCI-H1437,0.865,0.654,0.773,0.346,1.1,1.06,1.17,,0.949,0.676,0.8,0.558,0.513,0.59,,1.01,0.922,0.905,0.546,0.629
HCC-827,0.23,0.191,0.155,0.237,0.709,0.525,0.59,0.638,0.956,0.715,0.723,0.723,1.04,0.929,,1.07,,0.988,0.826,1.06
BEN,0.857,0.675,0.782,0.614,0.439,0.173,0.2,0.0694,0.318,0.326,0.338,0.27,0.659,,0.631,1.1,0.889,0.906,0.798,0.951
A-427,1.04,0.948,1.01,1.06,0.971,0.951,0.757,0.831,0.522,0.511,0.432,0.219,0.922,0.96,0.817,1.08,1.07,1.06,0.925,0.953
NCI-H727,0.777,0.597,0.771,0.486,0.528,0.344,0.501,0.221,0.688,0.542,0.619,0.508,0.618,0.699,0.516,0.623,0.579,0.702,0.326,0.775
LC-2-ad,1.05,0.878,0.587,0.314,1.01,1.04,1.06,0.879,0.889,,0.9,0.573,1.01,0.914,0.618,1.02,0.863,,0.678,1.25

Cell Line,relative viability ([1]; first compound 0.08 µM),relative viability ([1]; first compound 0.253 µM),relative viability ([1]; first compound 2.53 µM),relative viability ([1]; first compound 8 µM),relative viability ([2]; first compound 0.08 µM),relative viability ([2]; first compound 0.253 µM),relative viability ([2]; first compound 2.53 µM),relative viability ([2]; first compound 8 µM),relative viability ([3]; first compound 0.08 µM),relative viability ([3]; first compound 0.253 µM),relative viability ([3]; first compound 2.53 µM),relative viability ([3]; first compound 8 µM),relative viability ([4]; first compound 0.253 µM),relative viability ([4]; first compound 2.53 µM),relative viability ([4]; first compound 8 µM),relative viability ([5]; first compound 0.08 µM),relative viability ([5]; first compound 0.253 µM),relative viability ([5]; first compound 2.53 µM),relative viability ([5]; first compound 8 µM),relative viability ([4]; first compound 0.08 µM)
NCI-H23,1.23,1.07,1.02,0.908,0.225,,0.228,0.213,,0.501,0.488,0.398,0.89,0.804,0.861,0.74,0.632,0.745,0.498,0.97
NCI-H1792,0.948,0.811,0.936,0.879,0.438,0.358,0.534,0.353,0.811,0.697,0.695,0.394,0.957,0.958,0.92,0.704,0.622,0.657,0.664,1.02
NCI-H2405,1.26,0.967,1.09,0.784,0.868,0.705,0.79,0.446,0.679,0.662,0.731,0.546,0.905,1,0.926,1,0.857,0.627,0.423,1.03
NCI-H1993,0.893,0.782,,0.78,0.921,0.489,0.999,0.543,0.477,0.517,0.504,0.435,0.994,1.24,1.07,0.684,0.7,0.666,0.674,1.6
NCI-H1355,1.02,0.96,1.11,1.03,0.717,0.687,0.779,0.62,0.459,0.38,0.512,0.336,1.05,1.14,1.15,0.887,0.767,0.784,0.778,1.15
NCI-H2009,0.884,0.812,0.968,0.47,1.03,0.868,0.915,0.476,0.629,0.355,0.601,0.303,0.689,0.912,0.522,1.22,,1.03,0.842,0.898
NCI-H2085,,0.761,0.858,0.717,0.483,0.414,0.424,0.448,0.934,0.544,0.704,0.396,0.824,1.01,0.91,0.998,0.878,0.882,0.777,1.09
NCI-H3122,1.05,0.987,1.02,1.01,0.11,0.105,0.0728,0.044,0.99,0.898,0.805,0.378,0.984,1.06,0.952,0.799,0.971,0.79,0.409,0.993
EMC-BAC-2,0.924,0.813,0.883,0.879,1.21,1.08,1.17,0.812,0.341,0.358,0.391,0.358,0.917,1.07,1.02,,0.73,0.707,0.702,1.06
NCI-H2347,0.945,0.83,0.965,0.968,0.625,0.433,0.763,0.62,0.48,0.378,0.458,0.391,0.997,1.02,0.868,1.2,0.89,,1,1.13
NCI-H1915,0.932,0.879,0.943,0.951,0.848,0.678,,0.751,0.659,0.558,0.682,0.512,0.766,0.923,0.99,0.998,0.922,0.909,1.07,1.01
HCC-15,0.816,0.777,0.831,0.617,0.533,0.26,0.338,0.185,0.631,0.558,0.712,0.386,0.83,0.912,0.807,0.86,0.932,0.955,0.575,0.996
201T,1.06,0.991,,1.03,1.06,1.12,,1.04,,0.706,0.804,0.671,1.07,1.19,1.18,1,1.05,1.13,,1.1
NCI-H2228,1.23,0.936,0.985,0.627,0.181,0.178,0.154,0.105,0.626,0.607,,0.365,0.893,1.02,0.615,0.863,0.753,0.694,0.64,1.24
NCI-H647,1.18,0.868,1.19,0.426,0.182,0.0896,0.148,0.15,0.62,0.634,0.506,0.427,0.829,0.745,0.39,1.1,,0.872,,1.17
NCI-H460,1.02,0.868,0.915,0.807,0.0329,0.0278,0.0236,0.0147,0.761,0.596,0.459,0.0191,1.02,0.972,,0.594,0.643,0.566,0.103,1.01
